Source: ChEMBL document CHEMBL1158271, “Lupane derivatives from Lophopetalum wallichii with farnesyl protein transferase inhibitory activity” (J Nat Prod, 1996)
In brackets after ≈: the same amount, converted by molar mass.

Experiments:
[1] = Inhibition of recombinant protein farnesyltransferase-mediated [3H]FPP transfer after 30 mins by scintillation counting
[2] = Cytotoxicity against human BC1 cells; format: functional, cell-based
[3] = tested on: HT; experiment: Cytotoxicity against human HT cells; format: functional, cell-based
[4] = tested on: Lu1; experiment: Cytotoxicity against human Lu1 cells; format: functional, cell-based
[5] = tested on: SK-MEL-2; experiment: Cytotoxicity against human SK-MEL-2 cells; format: functional, cell-based
[6] = tested on: KB; experiment: Cytotoxicity against human KB cells; format: functional, cell-based
[7] = Cytotoxicity against human KBVIN cells; format: functional, cell-based
[8] = tested on: A-431; experiment: Cytotoxicity against human A431 cells; format: functional, cell-based
[9] = tested on: LNCaP; experiment: Cytotoxicity against human LNCAP cells; format: functional, cell-based
[10] = tested on: ZR-75-1; experiment: Cytotoxicity against human ZR-75-1 cells; format: functional, cell-based
[11] = Cytotoxicity against human U373 cells; format: functional, cell-based, U-373MG ATCC; conditions: U373 MG
[12] = tested on: Col2; experiment: Cytotoxicity against human Col2 cells; format: functional, cell-based

## CC1(C)C(=O)CC[C@]2(C)[C@H]3CC[C@@H]4[C@H]5[C@H]6[C@@H](C[C@]5(C)CC[C@@]4(C)[C@]3(C)CC[C@@H]12)OC(=O)[C@]61CO1 [20-EPI-OCHRACEOLIDE B]
[1]
  IC50: > 100 µg/mL

## C=C(C)[C@@H]1CC[C@]2(CO)CC[C@]3(C)[C@H](CC[C@@H]4[C@@]5(C)CC[C@H](O)C(C)(C)[C@@H]5CC[C@]43C)[C@@H]12 [BETULIN]
[1]
  IC50: 1 µg/mL

## C=C1C(=O)O[C@@H]2C[C@]3(C)CC[C@]4(C)[C@H](CC[C@@H]5[C@@]6(C)CC[C@H](O)C(C)(C)[C@@H]6CC[C@]54C)[C@H]3[C@H]12 [DIHYDRO OCHRACEOLIDE A]
[1]
  IC50: > 100 µg/mL
[2]
  EC50: 10.2 µg/mL (≈ 22.4 µM)
[3]
  EC50: 9.6 µg/mL (≈ 21.1 µM)
[4]
  EC50: 8.9 µg/mL (≈ 19.6 µM)
[5]
  EC50: > 20 µg/mL
[6]
  EC50: > 20 µg/mL
[7]
  EC50: > 20 µg/mL
[8]
  EC50: 6.8 µg/mL (≈ 15 µM)
[9]
  EC50: 14.5 µg/mL (≈ 31.9 µM)
[10]
  EC50: 3 µg/mL (≈ 6.6 µM)
[11]
  EC50: 9.1 µg/mL (≈ 20 µM)
[12]
  EC50: 12.1 µg/mL (≈ 26.6 µM)

## C=C(C)[C@@H]1CC[C@]2(C)CC[C@]3(C)[C@H](CC[C@@H]4[C@@]5(C)CC[C@H](O)C(C)(C)[C@@H]5CC[C@]43C)[C@@H]12 [LUPEOL]
[1]
  IC50: 65 µg/mL

## C=C1C(=O)O[C@@H]2C[C@]3(C)CC[C@]4(C)[C@H](CC[C@@H]5[C@@]6(C)CCC(=O)C(C)(C)[C@@H]6CC[C@]54C)[C@H]3[C@H]12 [OCHRACEOLIDE A]
[1]
  IC50: > 100 µg/mL
[2]
  EC50: 7.9 µg/mL (≈ 17.5 µM)
[3]
  EC50: 8.6 µg/mL (≈ 19 µM)
[4]
  EC50: 16.1 µg/mL (≈ 35.6 µM)
[5]
  EC50: > 20 µg/mL
[6]
  EC50: > 20 µg/mL
[7]
  EC50: 17.2 µg/mL (≈ 38 µM)
[8]
  EC50: > 20 µg/mL
[9]
  EC50: 13.4 µg/mL (≈ 29.6 µM)
[10]
  EC50: 4.5 µg/mL (≈ 9.94 µM)
[11]
  EC50: 6.7 µg/mL (≈ 14.8 µM)
[12]
  EC50: > 20 µg/mL
